Laboratory results as given in BigSolDB 2.1.

CC(=O)O[C@H]1NC(=O)[C@@H]1[C@@H](C)O[Si](C)(C)C(C)(C)C
solubility (mole fraction)
Conditions	293.15 K	298.15 K	303.15 K	308.15 K	313.15 K	318.15 K	323.15 K	328.15 K	333.15 K
in THF	0.238	0.242	0.251	0.264	0.278	0.3	0.323	0.342	0.368
in acetone	0.147	0.166	0.186	0.203	0.218	0.233	0.244	0.254	0.259
in acetonitrile	0.0493	0.0629	0.0792	0.0963	0.114	0.132	0.15	0.166	0.184
in chloroform	0.258	0.266	0.276	0.291	0.308	0.325	0.347	0.371	0.403
in cyclohexane	0.0028	0.00408	0.00582	0.00838	0.0116	0.0163	0.0223	0.0306	0.0413
in ethanol	0.0492	0.0601	0.072	0.0859	0.104	0.121	0.145	0.17	0.2
in ethyl acetate	0.159	0.179	0.198	0.216	0.24	0.264	0.294	0.326	0.356
in methanol	0.0593	0.069	0.0809	0.0959	0.113	0.134	0.161	0.193	0.233
in n-butyl acetate	0.13	0.145	0.163	0.18	0.199	0.221	0.251	0.288	0.326
in n-hexane	0.00287	0.00411	0.00577	0.00813	0.0116	0.0161	0.022	0.0305	0.0422
in toluene	0.0796	0.096	0.116	0.141	0.163	0.186	0.209	0.238	0.265
